# Measurements: ChEMBL document CHEMBL3525933 (Drug Metab Dispos, 2012)
# How the values were obtained:
# Plasma [1] = assay: Drug metabolism in Wistar rat plasma assessed as retention time by HPLC-DAD analysis; type: ADME, cell-free
# Plasma [2] = assay: Drug recovery in Wistar rat plasma at 2000 ng/ml by HPLC-DAD analysis; type: ADME, cell-free
# [3] = Drug excretion in streptozotocin-induced diabetic Wistar rat feces treated with mangiferin at 400 mg/kg, po administered as single dose by HPLC-DAD analysis; type: ADME, organism-based; design: dose 400 mg/kg, route oral; settings: in vivo
# [4] = Drug excretion in streptozotocin-induced diabetic Wistar rat urine treated with mangiferin at 400 mg/kg, po administered as single dose by HPLC-DAD analysis; type: ADME, organism-based; design: dose 400 mg/kg, route oral; settings: in vivo
# [5] = Drug excretion in conventional Wistar rat feces treated with mangiferin at 400 mg/kg, po administered as single dose by HPLC-DAD analysis; type: ADME, organism-based; design: dose 400 mg/kg, route oral; settings: in vivo
# [6] = Drug excretion in conventional Wistar rat urine treated with mangiferin at 400 mg/kg, po administered as single dose by HPLC-DAD analysis; type: ADME, organism-based; design: dose 400 mg/kg, route oral; settings: in vivo
# Rattus norvegicus = organism: Rattus norvegicus; assay: Drug retention time in Wistar rat by HPLC-DAD analysis; type: ADME, organism-based
Retention_time (Plasma [1]),Drug recovery (Plasma [2]),Drug excretion [3],Drug excretion [4],Drug excretion [5],Drug excretion [6],Retention_time (Rattus norvegicus),SMILES
9.5 min,85.1%,,,,,,O=c1c(-c2ccc(O)cc2)coc2cc(O[C@@H]3O[C@H](CO)[C@@H](O)[C@H](O)[C@H]3O)ccc12 [DAIDZIN]
,,metabolite_detected,metabolite_detected,metabolite_detected,metabolite_detected,36 min,O=c1c2cc(O)c(O)cc2oc2cc(O)cc(O)c12
